# Target: T1, human kinase Mps-1 (Homo sapiens, UniProt P33981)
# T1 construct: N-terminally GST-tagged human full length recombinant Mps-1 kinase; GST (N); purchased Invitrogen, Karslruhe, Germany PV4071
# T1 sequence (P33981 1-857): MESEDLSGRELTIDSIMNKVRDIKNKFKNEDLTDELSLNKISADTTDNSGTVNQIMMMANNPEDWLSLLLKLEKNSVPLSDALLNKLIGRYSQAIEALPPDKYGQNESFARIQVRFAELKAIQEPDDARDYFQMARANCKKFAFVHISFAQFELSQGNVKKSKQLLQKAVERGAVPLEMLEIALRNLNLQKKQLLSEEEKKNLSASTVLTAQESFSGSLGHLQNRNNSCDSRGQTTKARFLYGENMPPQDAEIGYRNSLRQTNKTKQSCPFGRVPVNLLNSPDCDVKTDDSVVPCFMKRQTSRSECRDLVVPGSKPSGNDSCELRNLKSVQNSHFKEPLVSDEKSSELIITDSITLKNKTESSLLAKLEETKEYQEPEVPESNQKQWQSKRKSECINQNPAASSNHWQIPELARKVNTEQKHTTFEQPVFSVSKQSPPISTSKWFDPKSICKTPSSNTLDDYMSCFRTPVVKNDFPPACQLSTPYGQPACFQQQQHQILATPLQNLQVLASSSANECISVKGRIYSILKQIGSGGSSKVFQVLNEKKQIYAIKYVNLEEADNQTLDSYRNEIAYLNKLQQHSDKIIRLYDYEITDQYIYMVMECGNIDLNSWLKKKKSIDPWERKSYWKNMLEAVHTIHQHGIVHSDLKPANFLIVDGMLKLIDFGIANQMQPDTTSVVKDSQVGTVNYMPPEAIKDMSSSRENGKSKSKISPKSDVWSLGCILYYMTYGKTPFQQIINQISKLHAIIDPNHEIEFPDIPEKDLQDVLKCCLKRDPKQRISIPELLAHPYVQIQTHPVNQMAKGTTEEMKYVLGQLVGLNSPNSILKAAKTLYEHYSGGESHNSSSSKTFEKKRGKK
# Assay: Mps-1 kinase assay (TR-FRET)
# Type: biochemical
# Details: N-terminally GST-tagged human full length recombinant Mps-1; 10 μM ATP; 1 μM peptide substrate; 15 min pre-incubation; 60 min at 22° C.
# Summary of the method: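 N-terminally GST-tagged full-length recombinant human Mps-1, about 1 nM final, phosphorylates a biotinylated peptide. Product detected by TR-FRET from Eu-anti-phospho-Ser/Thr antibody to streptavidin-XLent after 1 h at 22° C.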
row,IC50,Structure (SMILES)
1,5.4 nM,"Cc1cc(-c2cnc3c(NCC4CCC(C)(O)CC4)nc(-c4ccc(F)cc4)cn23)ccc1C(=O)NC1CC1 (centres unmarked) [Example 10-7, N-cyclopropyl-4-[6-(4-fluorophenyl)-8-{[(4-hydroxy-4-methylcyclo-hexyl)methyl]amino}imidazo[1,2-a]pyrazin-3-yl]-2-methylbenzamide]"
2,1.4 nM,"O=C(NC1CC1)c1ccc(-c2cnc3c(NCc4ccccc4F)nc(-c4ccccc4)cn23)cc1 [Example 2-13, N-cyclopropyl-4-{8-[(2-fluorobenzyl)amino]-6-phenylimidazo[1,2-a]pyrazin-3-yl}benzamide]"
3,19 nM,"NC(=O)CNc1nc(-c2ccccc2)cn2c(-c3ccc(C(=O)NC4CC4)cc3)cnc12 [Example 2-30, 4-{8-[(2-amino-2-oxoethyl)amino]-6-phenylimidazo[1,2-a]pyrazin-3-yl}-N-cyclopropyl-benzamide]"
4,1.9 nM,"O=C(NC1CC1)c1ccc(-c2cnc3c(NC[C@@H](O)CO)nc(-c4ccccc4)cn23)cc1 [Example 2-81, N-cyclopropyl-4-(8-{[(2R)-2,3-dihydroxypropyl]amino}-6-phenylimidazo[1,2-a]pyrazin-3-yl)benzamide]"
5,6.5 nM,"Cc1ccccc1CNc1nc(-c2ccccc2)cn2c(-c3ccc(C(=O)NC4CC4)cc3)cnc12 [Example 2-5, N-cyclopropyl-4-{8-[(2-methylbenzyl)amino]-6-phenylimidazo[1,2-a]pyrazin-3-yl}benzamide]"
6,17.4 nM,NCCCNc1nc(-c2ccccc2)cn2c(-c3ccc(C(=O)NC4CC4)cc3)cnc12 [Example 2-68]
7,3.2 nM,"CC(C)CCNc1nc(-c2ccccc2)cn2c(-c3ccc(C(=O)NC4CC4)cc3)cnc12 [Example 2-4, N-cyclopropyl-4-{8-[(3-methylbutyl)amino]-6-phenylimidazo[1,2-a]pyrazin-3-yl}benzamide]"
8,1 nM,"N#CCCNc1nc(-c2ccccc2)cn2c(-c3ccc(C(=O)NC4CC4)cc3)cnc12 [Example 2-35, 4-{8-[(2-cyanoethyl)amino]-6-phenylimidazo[1,2-a]pyrazin-3-yl}-N-cyclopropyl-benzamide]"
9,63.4 nM,"CCN1CCC(CNc2nc(-c3ccc(F)cc3)cn3c(-c4ccc(C(=O)NC5CC5)c(C)c4)cnc23)C1 (centres unmarked) [Example 10-9, N-cyclopropyl-4-[8-{[(1-ethylpyrrolidin-3-yl)methyl]amino}-6-(4-fluorophenyl)imidazo [1,2-a]pyrazin-3-yl]-2-methylbenzamide]"
10,217 nM,"O=C(NC1CC1)c1ccc(-c2cnc3c(NCc4ccc(OC(F)(F)F)cc4)nc(-c4ccccc4)cn23)cc1 [Example 2-22, N-cyclopropyl-4-(6-phenyl-8-{[4-(trifluoromethoxy)benzyl]amino}imidazo[1,2-a]pyrazin-3-yl)benzamide]"
11,4.9 nM,"O=C(NC1CC1)c1ccc(-c2cnc3c(NCc4ccc(Cl)s4)nc(-c4ccccc4)cn23)cc1 [Example 2-60, 4-(8-{[(5-chlorothiophen-2-yl)methyl]amino}-6-phenylimidazo [1,2-a]pyrazin-3-yl)-N-cyclopropylbenzamide]"

# The remaining lines, values behind:
row,Structure (SMILES),IC50
1,"CC(C)CNc1nc(-c2ccc(N3CCNCC3)cc2)cn2c(-c3ccc(C(=O)NC4CC4)cc3)cnc12 [Example 1-89, N-cyclopropyl-4-{8-[(2-methylpropyl)amino]-6-[4-(piperazin-1-yl)phenyl]imidazo[1,2-a]pyrazin-3-yl}benzamide]",2 nM
2,"COc1cc(OC)cc(-c2cn3c(-c4ccc(C(=O)NC5CC5)cc4)cnc3c(NCC(C)C)n2)c1 [Example 1-21, N-cyclopropyl-4-{6-(3,5-dimethoxyphenyl)-8-[(2-methylpropyl)amino]imidazo[1,2-a]pyrazin-3-yl}benzamide]",19 nM
3,"CC(C)CNc1nc(-c2ccc(-c3ccccc3)cc2)cn2c(-c3ccc(C(=O)NC4CC4)cc3)cnc12 [Example 1-49, 4-{6-(biphenyl-4-yl)-8-[(2-methylpropyl)amino]imidazo[1,2-a]pyrazin-3-yl}-N-cyclopropyl-benzamide]",7.2 nM
4,"COc1ccc(-c2cn3c(-c4ccc(C(=O)NC5CC5)cc4)cnc3c(NCC(C)C)n2)cc1F [Example 1-62, N-cyclopropyl-4-{6-(3-fluoro-4-methoxyphenyl)-8-[(2-methylpropyl)amino]imidazo[1,2-a]pyrazin-3-yl}benzamide]",6.7 nM
5,"CC(C)CNc1nc(-c2cccc3[nH]ccc23)cn2c(-c3ccc(C(=O)NC4CC4)cc3)cnc12 [Example 1-22, N-cyclopropyl-4-{6-(1H-indol-4-yl)-8-[(2-methyl-propyl)amino]imidazo [1,2-a]pyrazin-3-yl} benzamide]",2.6 nM
6,"Cc1cccc(-c2cn3c(-c4ccc(C(=O)NC5CC5)cc4)cnc3c(NCC(C)C)n2)c1 [Example 1-8, N-cyclopropyl-4-{6-(3-methylphenyl)-8-[(2-methylpropyl)amino]imidazo[1,2-a]pyrazin-3-yl}benzamide]",4.9 nM
7,"CC(C)(O)CNc1nc(-c2ccccc2CO)cn2c(-c3ccc(C(=O)NC4CC4)c(F)c3)cnc12 [Example 1-116, N-cyclopropyl-2-fluoro-4-{6-[2-(hydroxymethyl)phenyl]-8-[(2-hydroxy-2-methylpropyl)amino]imidazo[1,2-a]pyrazin-3-yl}benzamide]",34.7 nM
8,"CC(C)CNc1nc(-c2cccc(C(=O)N3CCCC3)c2)cn2c(-c3ccc(C(=O)NC4CC4)cc3)cnc12 [Example 1-54, N-cyclopropyl-4-{8-[(2-methylpropyl)amino]-6-[3-(pyrrolidin-1-yl-carbonyl)phenyl]imidazo [1,2-a]pyrazin-3-yl} benzamide]",6.2 nM
9,"CC(C)CNc1nc(-c2ccccc2O)cn2c(-c3ccc(C(=O)NC4CC4)cc3)cnc12 [Example 1-65, N-cyclopropyl-4-{6-(2-hydroxyphenyl)-8-[(2-methylpropyl)amino]imidazo[1,2-a]pyrazin-3-yl}benzamide]",8.5 nM
10,"CC(C)CNc1nc(-c2ccccc2Oc2ccccc2)cn2c(-c3ccc(C(=O)NC4CC4)cc3)cnc12 [Example 1-64, N-cyclopropyl-4-{8-[(2-methylpropyl)amino]-6-(2-phenoxyphenyl)imidazo[1,2-a]pyrazin-3-yl}benzamide]",74.3 nM
11,"Cc1ccccc1-c1cn2c(-c3ccc(C(=O)NC4CC4)cc3)cnc2c(NCC(C)C)n1 [Example 1-19, N-cyclopropyl-4-{6-(2-methylphenyl)-8-[(2-methylpropyl)amino]imidazo[1,2-a]pyrazin-3-yl}benzamide]",1.5 nM
12,"Cc1cc(-c2cn3c(-c4ccc(C(=O)NC5CC5)cc4)cnc3c(NCC(C)C)n2)cc(C)c1O [Example 1-12, N-cyclopropyl-4-{6-(4-hydroxy-3,5-dimethyl-phenyl)-8-[(2-methyl-propyl)amino]imidazo [1,2-a]pyrazin-3-yl} benzamide]",3.8 nM
13,"O=C(NC1CC1)c1ccc(-c2cnc3c(NCC4CCCCC4)nc(-c4cccc5ncccc45)cn23)cc1 [Example 1-128, 4-{8-[(cyclohexylmethyl)amino]-6-(quinolin-5-yl)imidazo[1,2-a]pyrazin-3-yl}-N-cyclopropylbenzamide]",1.2 nM
14,"CC(C)CNc1nc(-c2ccc(C(=O)NC3CC3)c(Cl)c2)cn2c(-c3ccc(C(=O)NC4CC4)cc3)cnc12 [Example 1-83, 2-chloro-N-cyclopropyl-4-{3-[4-(cyclopropyl-carbamoyl)phenyl]-8-[(2-methylpropyl)amino]imidazo[1,2-a]pyrazin-6-yl}benzamide]",6.9 nM
15,"CC(C)CNc1nc(-c2ccc(O)cc2)cn2c(-c3ccc(C(=O)NC4CC4)cc3)cnc12 [Example 1-67, N-cyclopropyl-4-{6-(4-hydroxyphenyl)-8-[(2-methylpropyl)amino]imidazo[1,2-a]pyrazin-3-yl}benzamide]",3.5 nM
16,"CC(C)CNc1nc(-c2cccc(C(F)(F)F)c2)cn2c(-c3ccc(C(=O)NC4CC4)cc3)cnc12 [Example 1-35, N-cyclopropyl-4-{8-[(2-methylpropyl)amino]-6-[3-(trifluoromethyl)phenyl]imidazo[1,2-a]pyrazin-3-yl}benzamide]",49.3 nM
17,"CC(C)CNc1nc(-c2cccc3cnccc23)cn2c(-c3ccc(C(=O)NC4CC4)cc3)cnc12 [Example 1-32, N-cyclopropyl-4-{6-(iso-quinolin-5-yl)-8-[(2-methylpropyl)amino]imidazo[1,2-a]pyrazin-3-yl}benzamide]",1.3 nM
18,"CC(C)CNc1nc(-c2ccc(C(N)=O)cc2)cn2c(-c3ccc(C(=O)NC4CC4)cc3)cnc12 [Example 1-24, 4-{6-(4-carbamoylphenyl)-8-[(2-methylpropyl)amino]imidazo[1,2-a]pyrazin-3-yl}-N-cyclo-propylbenzamide]",1.1 nM

# — US20140187548A1, “6 SUBSTITUTED IMIDAZOPYRAZINES FOR USE AS MPS-1 AND TKK INHIBITORS IN THE TREATMENT OF HYPERPROLIFERATIVE DISORDERS” (BAYER INTELLECTUAL PROPERTY GMBH, priority 2010, published 2014)
